Results as given in paper PMC4657899, “Design, Synthesis and In Vitro Activity of Anticancer Styrylquinolines. The p53 Independent Mechanism of Action” (PLoS ONE, 2015).

Experiments:
HCT116 (p53-/-) = experiment: MTS anti-proliferative assay, HCT116 (p53-/-); format: cell-based, human; settings: for IC50: Homo sapiens, HCT-116, MTS, 72 h incubation, mean ± SD
Procedure: (§1) The human colon adenocarcinoma cell line HCT116 along with wild type p53 (p53^+/+) were obtained from the ATCC. The normal human fibroblast cell line GM 07492 and HCT116 with a p53 deletion (p53^-/-) were kindly provided by prof. M. Rusin from Maria Sklodowska-Curie Memorial Cancer Center and Institute of Oncology in Gliwice, Poland. Cells were grown as monolayer cultures in 75 cm^2 flasks (Nunc) in Dulbecco’s modified Eagle’s medium with an antibiotic gentamicin (200 μL/100 mL medium). DMEM for HCT116 were supplemented with 12% heat-inactivated fetal bovine serum (Gibco) and for GM 07492 with 15% fetal bovine serum (Gibco). Cells were cultured under standard conditions at 37°C in a humidified atmosphere at 5% CO2.
(§2) The cells were seeded in 96-well plates 24 h before the addition of the compounds that were tested. The assay was performed following a 72 h incubation with varying concentrations of the agents that were tested. The results were calculated as IC50 values (using GraphPad Prism 5). Each individual compound was tested in triplicate in a single experiment with each experiment being repeated three times. After a 72 h incubation with the compounds that were tested, 20 μL of The CellTiter 96®AQueous One Solution—MTS (Promega) solution was added to each well (with 100 μL DMEM without phenol red) and incubated for 1 h at 37°C. The optical densities of the samples were analyzed at 490 nm. Results were expressed as a percentage of the control.

GM 07492 = experiment: MTS cytotoxicity assay, normal fibroblasts GM 07492; format: cell-based; settings: Fibroblast, 72 h incubation, normal human fibroblasts, mean ± SD
Procedure: as §1, §2

HCT116 (p53+/+) = experiment: MTS anti-proliferative assay, HCT116 (p53+/+); format: cell-based, human; settings: Homo sapiens, HCT-116, 72 h incubation, mean ± SD
Procedure: as §1, §2

PARP in HCT-116 cells = experiment: Immunoblotting, PARP cleavage; format: cell-based, human; settings: 0, 10, 20, 40 μM
Procedure: Specific antibodies were purchased from Sigma-Aldrich (anti-PARP, anti-tubulin and peroxidase-labeled secondary antibodies). Briefly, cellular lysates were prepared by harvesting cells in a Laemmli sample buffer. Proteins were separated on SDS-polyacrylamide gels and electroblotted onto nitrocellulose membranes. After blocking, the membranes were incubated with specific primary antibodies overnight, washed and then incubated with peroxidase-conjugated secondary antibodies. Finally, peroxidase activity was detected with ECL+ reagents (AP Biotech) using a CCD camera LAS-4000 (Fujifilm).

[1] = tested on: caspase-3 and -7 in HCT116 (p53-/-) cells; experiment: Caspase-Glo 3/7 assay, HCT116 (p53-/-); format: cell-based, human; settings: IC50 concentration, 48 h
Procedure: (§3) To measure caspase-3 and -7 activities, a luminescent Caspase-Glo 3/7 assay was performed. HCT116 (p53^+/+) and (p53^-/-) cells were seeded onto black 96-well plates at a density of 3,500 cells/well. […] After 48 h a Caspase-Glo 3/7 Assay (Promega) was performed according to the manufacturer’s instructions. After adding 100 μL of Caspase3/7 GloReagent, cells were incubated for 2.5 h at room temperature. The luminescence was measured using a multi-plate reader (Synergy 4, Bio Tek) with an integration time of 1 second per well. The experiments were performed in duplicate.

HCT116 p53-/- cells = tested on: HCT116 p53-/- cells; design: method as in PMID 12027451; settings: cited from earlier work
Calf-thymus DNA (CT-DNA) = experiment: Spectrophotometric DNA binding (intercalation) study with CT-DNA; settings: for % hypochromism: 1.5 h 37°C, Tris-HCl pH 7.9; for % hypochromism / Δε: at the (first) absorption band (CP-31398: 312); for shift of the wavelength of maximum absorption, alone vs DNA-bound / Changes in absorbance: S3 Table; for Changes in absorbance: with CT-DNA
Procedure: For the DNA binding studies, Calf-thymus DNA (CT-DNA) was purchased from Sigma Aldrich. The lyophilized CT-DNA was dissolved in 10 mM Tris-HCl, pH 7.9, mixed gently and left overnight at 4°C. Then, the concentration of CT-DNA was determined from the absorbance at 260 nm using an extinction coefficient of 6600 M^-1cm^-1. […] Afterwards, 18 μM CT-DNA was added to the prepared solutions and were incubated for 1.5 h at 37°C with occasional vortexing. Absorption spectra were measured using a Hitachi U-2900 spectrophotometer in range of 200–600 nm. All absorption spectra were imported and compared in OriginPro 8.0.

[2] = tested on: caspase-3 and -7 in HCT116 (p53+/+) cells; experiment: Caspase-Glo 3/7 assay, HCT116 (p53+/+); format: cell-based, human; settings: IC50 concentration, 48 h, relative to doxorubicin
Procedure: as §3

HCT116 -/- = experiment: Trypan blue staining test, HCT116 -/-; format: cell-based, human; settings: Homo sapiens, HCT-116; S2 Table, trypan blue cell counting, 72 h
Procedure: (§4) The cells were seeded in 3 cm Petri dishes (Nunc) and incubated at 37°C. After 24h, solutions […]
(§5) a 72 h incubation with tested compounds, the cells were trypsinize d with 0.05% Trypsin -EDTA solution (Sigma). Then, 90µl of suspension cells transferred into 96 -well plate containing 10µl Trypan blue reagent in wells. The cells were counted under an optical inverted microscope Olympus CKX31. The results from three independent experiment were calculated as IC 50 values using GraphPad Prism 5 software.

HCT116 +/+ = experiment: Trypan blue staining test, HCT116 +/+; format: cell-based, human; settings: Homo sapiens, HCT-116; S2 Table, trypan blue cell counting, 72 h
Procedure: as §4, §5

colon cancer cells = tested on: colon cancer cells; design: method as in Arafa et al.; settings: ref Arafa et al.; cited from earlier work
P388 cell line = tested on: P388 cell line; design: method as in PMID 17904844; settings: cited from earlier work
SK-N-MC cell line = tested on: SK-N-MC cell line; design: method as in PMID 17142046; settings: cited from earlier work
[3] = 18 μM CT-DNA, CP-31398 absorption band 350

Structure (SMILES): CC(=O)Oc1cccc2ccc(C=Cc3ccccc3F)nc12 [12b]
- IC50 (HCT116 (p53-/-)): 5.78 ± 0.78 µM
- times more effective against HCT116 (p53-/-) than against wild type cells (HCT116 (p53-/-); ratio of MTS IC50 values): 2–3 times
- IC50 (GM 07492): > 25 µM
- IC50 (HCT116 (p53+/+)): 12.1 ± 3.02 µM
- melting point: 117 °C

Structure (SMILES): COc1cccc(C=Cc2ccc3cccc(O)c3n2)c1 [13b]
- IC50 (HCT116 (p53-/-)): 18.4 ± 1.36 µM
- IC50 (GM 07492): > 25 µM
- IC50 (HCT116 (p53+/+)): 24.6 ± 4.36 µM

Structure (SMILES): CC(=O)Oc1ccc(C=Cc2ccc3cccc(OC(C)=O)c3n2)c(OC(C)=O)c1OC(C)=O [14b]
- IC50 (HCT116 (p53-/-)): 11.4 ± 1.02 µM
- IC50 (HCT116 (p53+/+)): 17.9 ± 1.67 µM
- melting point: 194 °C

Structure (SMILES): CCOc1ccccc1C=Cc1ccc2cccc(O)c2n1 [15b, 2 – [2-(2-Ethoxyphenyl)vinyl]quinolin-8-ol]
- IC50 (HCT116 (p53-/-)): 12.8 ± 3.53 µM
- IC50 (HCT116 (p53+/+)): 15.8 ± 3.32 µM
- melting point: 100 °C

Structure (SMILES): CCOc1ccc(C=Cc2ccc3cccc(O)c3n2)cc1 [16b, 2 – [2-(4-Ethoxyphenyl)vinyl]quinolin-8-ol]
- IC50 (HCT116 (p53-/-)): 16.1 ± 4.84 µM
- IC50 (HCT116 (p53+/+)): > 25 µM
- melting point: 130 °C

Structure (SMILES): Oc1cccc2ccc(C=Cc3ccccc3Cl)nc12 [17b, 2 – [2-(2-Chlorophenyl)vinyl]quinolin-8-ol]
- IC50 (HCT116 (p53-/-)): 7.97 ± 3.24 µM
- IC50 (GM 07492): 20.2 ± 6.52 µM
- IC50 (HCT116 (p53+/+)): 9.84 ± 1.79 µM
- PARP cleavage (PARP in HCT-116 cells): clearly observable

Structure (SMILES): Oc1ccccc1C=Cc1ccc2cccc(O)c2n1 [18b, 2 – [2-(2-Hydroxyphenyl)vinyl]quinolin-8-ol]
- IC50 (HCT116 (p53-/-)): 15.2 ± 1.31 µM
- IC50 (HCT116 (p53+/+)): 16.1 ± 0.88 µM
- melting point: 316 °C

Structure (SMILES): Oc1cccc(C=Cc2ccc3cccc(O)c3n2)c1 [19b, 2 – [2-(3-Hydroxyphenyl)vinyl]quinolin-8-ol]
- IC50 (HCT116 (p53-/-)): 10.6 ± 1.23 µM
- IC50 (HCT116 (p53+/+)): 16.3 µM

Structure (SMILES): Oc1ccc(C=Cc2ccc3cccc(O)c3n2)c(O)c1 [20b, 2 – [2-(2,4-Dihydroxyphenyl)vinyl]quinolin-8-ol]
- IC50 (HCT116 (p53-/-)): > 25 µM
- IC50 (HCT116 (p53+/+)): > 25 µM
- melting point: 273 °C

Structure (SMILES): COc1ccc(/C=C/c2nc(NCCCN(C)C)c3ccccc3n2)cc1 [CP-31398]
- Caspase-3/7 activity in p53-/- cells [1]: did not increase the activity of caspases
- IC50 (HCT116 (p53-/-)): 26.3 ± 1.41 µM
- activity against HCT116 p53-/- cells versus wild-type (p53+/+) (HCT116 p53-/- cells): several times less active
- % hypochromism (Calf-thymus DNA (CT-DNA); 18 μM CT-DNA): 41,4%
- % hypochromism, second absorption band (Calf-thymus DNA (CT-DNA); [3]): 37,4%
- Δε, second absorption band (Calf-thymus DNA (CT-DNA); [3]): 1693,3 M−1 cm−1
- Δε (Calf-thymus DNA (CT-DNA); 18 μM CT-DNA): 1515,6 M−1 cm−1
- shift of the wavelength of maximum absorption, alone vs DNA-bound (Calf-thymus DNA (CT-DNA); 18 μM CT-DNA): 0
- Changes in absorbance (Calf-thymus DNA (CT-DNA)): hypochromism
- IC50 (GM 07492): 12.3 ± 0.54 µM
- IC50 (HCT116 (p53+/+)): 18.6 ± 0.92 µM
- Caspase-3/7 activity in wild type cells [2]: two times higher than doxorubicin

Structure (SMILES): COc1cccc2c1C(=O)c1c(O)c3c(c(O)c1C2=O)C[C@@](O)(C(=O)CO)C[C@@H]3O[C@H]1C[C@H](N)[C@H](O)[C@H](C)O1 [Doxorubicin]
- IC50 (HCT116 (p53-/-)): 1.65 ± 0.21 µM
- % hypochromism (Calf-thymus DNA (CT-DNA); 18 μM CT-DNA): 34.2%
- % hypochromism (Calf-thymus DNA (CT-DNA); 18 μM CT-DNA, listed as DOX): 34,2%
- Δε (Calf-thymus DNA (CT-DNA); 18 μM CT-DNA): 3235,6 M−1 cm−1
- shift of the wavelength of maximum absorption, alone vs DNA-bound (Calf-thymus DNA (CT-DNA); 18 μM CT-DNA): 10
- Changes in absorbance (Calf-thymus DNA (CT-DNA)): hypochromism
- shift in the wavelength on DNA binding (Calf-thymus DNA (CT-DNA); blue shift for 5b, 6b, red shift for doxorubicin): 10 nm
- IC50 (HCT116 -/-): 1.28 µM
- IC50 (GM 07492): 3.38 ± 1.29 µM
- IC50 (HCT116 +/+): 2.83 µM
- IC50 (HCT116 (p53+/+)): 5.95 ± 0.5 µM

Structure (SMILES): COc1cc(/C=N/NC(=O)COc2c(Br)cc(Br)c3cccnc23)cnc1O [III]
- IC50 (colon cancer cells): 4.7 µM

Structure (SMILES): Cc1ccc2c(n1)C(=O)C(NC(=O)/C=C/c1ccccc1)=CC2=O [IV]
- IC50 (P388 cell line): 1.44 µM

Structure (SMILES): Oc1cccc2ccc(/C=C/c3ccc(Cl)cc3)nc12 [I]
- IC50 (SK-N-MC cell line): 0.77 µM
